Measured values as given in ChEMBL document CHEMBL3352351 (Bioorg Med Chem, 2014).

What was measured:
[1] = target: Epidermal growth factor receptor (Homo sapiens, UniProt P00533); assay: Inhibition of EGFR (unknown origin) using poly (Glu, Tyr) 4:1 substrate incubated for 30 mins by HTRF assay
HT-29 = assay: Cytotoxicity against human HT-29 cells after 72 hrs by MTT assay; conditions: HT-29, 72 h
[2] = Cytotoxicity against human U87MG cells after 72 hrs by MTT assay; assay type: functional, cell-based, U-87MG ATCC; conditions: U-87 MG
[3] = target: Platelet-derived growth factor receptor beta (Homo sapiens, UniProt P09619); assay: Inhibition of PDGFRbeta (unknown origin) using poly (Glu, Tyr) 4:1 substrate incubated for 30 mins by HTRF assay
[4] = target: Hepatocyte growth factor receptor (Homo sapiens, UniProt P08581); assay: Inhibition of c-Met (unknown origin) using poly (Glu, Tyr) 4:1 substrate incubated for 30 mins by HTRF assay
[5] = Cytotoxicity against human MKN45 cells after 72 hrs by MTT assay; conditions: MKN-45, 72 h
[6] = target: T1, Receptor-type tyrosine-protein kinase FLT3 (Homo sapiens, UniProt P36888); assay: Inhibition of FLT3 (unknown origin) using poly (Glu, Tyr) 4:1 substrate incubated for 30 mins by HTRF assay
T1 sequence (P36888 whole entry): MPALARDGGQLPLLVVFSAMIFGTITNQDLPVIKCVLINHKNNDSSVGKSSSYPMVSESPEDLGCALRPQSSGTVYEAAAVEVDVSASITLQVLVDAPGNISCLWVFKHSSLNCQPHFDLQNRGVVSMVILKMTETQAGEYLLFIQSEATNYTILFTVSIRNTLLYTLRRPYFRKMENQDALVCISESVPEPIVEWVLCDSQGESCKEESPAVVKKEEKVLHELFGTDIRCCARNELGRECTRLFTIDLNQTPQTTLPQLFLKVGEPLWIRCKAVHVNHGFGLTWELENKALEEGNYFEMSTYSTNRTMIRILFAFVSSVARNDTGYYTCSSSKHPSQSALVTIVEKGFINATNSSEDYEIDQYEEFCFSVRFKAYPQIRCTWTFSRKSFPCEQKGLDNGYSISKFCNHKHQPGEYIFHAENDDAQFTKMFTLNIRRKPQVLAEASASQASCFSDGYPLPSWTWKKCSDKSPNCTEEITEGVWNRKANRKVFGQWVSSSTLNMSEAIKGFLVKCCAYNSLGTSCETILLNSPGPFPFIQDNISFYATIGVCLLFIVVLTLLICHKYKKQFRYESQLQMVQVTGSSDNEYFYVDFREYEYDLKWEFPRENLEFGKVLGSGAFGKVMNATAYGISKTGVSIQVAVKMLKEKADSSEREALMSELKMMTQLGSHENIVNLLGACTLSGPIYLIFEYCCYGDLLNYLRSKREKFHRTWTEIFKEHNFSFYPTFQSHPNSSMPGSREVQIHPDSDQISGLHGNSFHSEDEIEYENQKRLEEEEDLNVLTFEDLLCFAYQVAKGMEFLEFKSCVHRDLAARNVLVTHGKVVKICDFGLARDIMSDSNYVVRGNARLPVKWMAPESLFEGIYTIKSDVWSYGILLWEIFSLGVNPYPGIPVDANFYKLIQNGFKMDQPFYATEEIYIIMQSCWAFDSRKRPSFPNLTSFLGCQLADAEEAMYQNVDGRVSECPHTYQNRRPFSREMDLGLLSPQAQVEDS

[7] = Cytotoxicity against human H460 cells after 72 hrs by MTT assay; conditions: NCI-H460, 72 h
[8] = target: Vascular endothelial growth factor receptor 2 (Homo sapiens, UniProt P35968); assay: Inhibition of KDR (unknown origin) using poly (Glu, Tyr) 4:1 substrate incubated for 30 mins by HTRF assay
A549 = assay: Cytotoxicity against human A549 cells after 72 hrs by MTT assay; conditions: A549, 72 h
[9] = target: Mast/stem cell growth factor receptor Kit (Homo sapiens, UniProt P10721); assay: Inhibition of c-Kit (unknown origin) using poly (Glu, Tyr) 4:1 substrate incubated for 30 mins by HTRF assay
Chain of Mast/stem cell growth factor receptor Kit (P10721 whole entry): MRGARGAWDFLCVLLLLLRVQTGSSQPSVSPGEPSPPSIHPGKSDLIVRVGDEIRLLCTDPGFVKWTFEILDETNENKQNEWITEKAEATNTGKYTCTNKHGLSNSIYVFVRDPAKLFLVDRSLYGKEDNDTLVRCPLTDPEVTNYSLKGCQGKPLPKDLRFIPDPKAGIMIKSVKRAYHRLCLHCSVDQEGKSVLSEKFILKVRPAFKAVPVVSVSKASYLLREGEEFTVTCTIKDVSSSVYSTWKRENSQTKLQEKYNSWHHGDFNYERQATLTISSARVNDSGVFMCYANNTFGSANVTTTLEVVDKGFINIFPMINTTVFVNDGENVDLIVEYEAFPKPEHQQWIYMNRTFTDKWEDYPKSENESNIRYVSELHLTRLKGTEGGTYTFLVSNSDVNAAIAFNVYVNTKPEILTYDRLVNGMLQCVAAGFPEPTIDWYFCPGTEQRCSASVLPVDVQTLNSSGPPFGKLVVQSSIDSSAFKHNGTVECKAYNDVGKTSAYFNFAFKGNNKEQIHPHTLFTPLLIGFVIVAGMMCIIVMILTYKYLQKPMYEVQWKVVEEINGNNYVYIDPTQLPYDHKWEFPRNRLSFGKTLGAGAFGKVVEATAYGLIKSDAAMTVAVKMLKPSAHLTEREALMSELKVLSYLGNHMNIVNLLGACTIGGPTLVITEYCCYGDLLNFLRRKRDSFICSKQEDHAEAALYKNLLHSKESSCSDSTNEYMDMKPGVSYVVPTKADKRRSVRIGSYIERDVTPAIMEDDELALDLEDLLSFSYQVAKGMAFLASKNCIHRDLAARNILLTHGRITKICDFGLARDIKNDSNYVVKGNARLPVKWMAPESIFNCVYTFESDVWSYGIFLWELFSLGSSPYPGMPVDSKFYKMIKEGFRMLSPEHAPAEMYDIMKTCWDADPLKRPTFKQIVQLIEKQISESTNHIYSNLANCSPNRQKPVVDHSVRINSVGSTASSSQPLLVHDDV

Chain of Hepatocyte growth factor receptor (P08581 whole entry): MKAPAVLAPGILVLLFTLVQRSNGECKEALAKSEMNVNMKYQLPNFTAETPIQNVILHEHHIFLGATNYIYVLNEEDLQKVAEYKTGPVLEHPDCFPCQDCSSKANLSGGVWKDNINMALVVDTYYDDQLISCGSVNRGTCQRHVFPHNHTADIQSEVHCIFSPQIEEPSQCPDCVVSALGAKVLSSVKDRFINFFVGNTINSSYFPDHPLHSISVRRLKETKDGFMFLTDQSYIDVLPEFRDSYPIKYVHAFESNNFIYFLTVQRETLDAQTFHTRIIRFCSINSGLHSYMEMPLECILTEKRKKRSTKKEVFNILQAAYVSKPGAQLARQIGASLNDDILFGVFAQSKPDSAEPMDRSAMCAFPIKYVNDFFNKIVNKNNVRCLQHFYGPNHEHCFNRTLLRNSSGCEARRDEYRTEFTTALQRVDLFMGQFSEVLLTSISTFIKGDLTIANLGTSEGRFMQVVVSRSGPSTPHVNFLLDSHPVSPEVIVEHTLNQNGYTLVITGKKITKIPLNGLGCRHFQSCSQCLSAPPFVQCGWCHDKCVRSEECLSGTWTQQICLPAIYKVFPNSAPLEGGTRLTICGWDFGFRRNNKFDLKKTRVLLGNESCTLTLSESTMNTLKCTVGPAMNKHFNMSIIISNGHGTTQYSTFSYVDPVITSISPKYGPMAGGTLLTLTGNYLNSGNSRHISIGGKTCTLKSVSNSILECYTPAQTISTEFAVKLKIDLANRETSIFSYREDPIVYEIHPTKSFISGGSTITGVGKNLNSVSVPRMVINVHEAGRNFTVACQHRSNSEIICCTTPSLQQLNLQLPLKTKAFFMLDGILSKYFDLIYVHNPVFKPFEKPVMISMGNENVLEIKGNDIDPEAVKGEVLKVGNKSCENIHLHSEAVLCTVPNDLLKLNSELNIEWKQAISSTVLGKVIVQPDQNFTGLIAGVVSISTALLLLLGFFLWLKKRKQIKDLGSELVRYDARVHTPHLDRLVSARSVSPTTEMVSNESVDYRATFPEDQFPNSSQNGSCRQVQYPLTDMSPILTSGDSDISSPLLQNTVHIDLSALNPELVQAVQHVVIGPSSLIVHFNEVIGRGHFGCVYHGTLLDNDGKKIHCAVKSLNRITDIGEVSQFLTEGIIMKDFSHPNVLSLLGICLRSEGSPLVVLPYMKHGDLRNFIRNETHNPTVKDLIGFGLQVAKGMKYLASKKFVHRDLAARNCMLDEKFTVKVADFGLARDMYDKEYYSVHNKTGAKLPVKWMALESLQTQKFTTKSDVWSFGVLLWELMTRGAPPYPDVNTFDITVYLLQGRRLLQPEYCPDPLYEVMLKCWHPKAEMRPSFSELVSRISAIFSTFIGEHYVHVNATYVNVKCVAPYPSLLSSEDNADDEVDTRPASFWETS
Chain of Platelet-derived growth factor receptor beta (P09619 whole entry): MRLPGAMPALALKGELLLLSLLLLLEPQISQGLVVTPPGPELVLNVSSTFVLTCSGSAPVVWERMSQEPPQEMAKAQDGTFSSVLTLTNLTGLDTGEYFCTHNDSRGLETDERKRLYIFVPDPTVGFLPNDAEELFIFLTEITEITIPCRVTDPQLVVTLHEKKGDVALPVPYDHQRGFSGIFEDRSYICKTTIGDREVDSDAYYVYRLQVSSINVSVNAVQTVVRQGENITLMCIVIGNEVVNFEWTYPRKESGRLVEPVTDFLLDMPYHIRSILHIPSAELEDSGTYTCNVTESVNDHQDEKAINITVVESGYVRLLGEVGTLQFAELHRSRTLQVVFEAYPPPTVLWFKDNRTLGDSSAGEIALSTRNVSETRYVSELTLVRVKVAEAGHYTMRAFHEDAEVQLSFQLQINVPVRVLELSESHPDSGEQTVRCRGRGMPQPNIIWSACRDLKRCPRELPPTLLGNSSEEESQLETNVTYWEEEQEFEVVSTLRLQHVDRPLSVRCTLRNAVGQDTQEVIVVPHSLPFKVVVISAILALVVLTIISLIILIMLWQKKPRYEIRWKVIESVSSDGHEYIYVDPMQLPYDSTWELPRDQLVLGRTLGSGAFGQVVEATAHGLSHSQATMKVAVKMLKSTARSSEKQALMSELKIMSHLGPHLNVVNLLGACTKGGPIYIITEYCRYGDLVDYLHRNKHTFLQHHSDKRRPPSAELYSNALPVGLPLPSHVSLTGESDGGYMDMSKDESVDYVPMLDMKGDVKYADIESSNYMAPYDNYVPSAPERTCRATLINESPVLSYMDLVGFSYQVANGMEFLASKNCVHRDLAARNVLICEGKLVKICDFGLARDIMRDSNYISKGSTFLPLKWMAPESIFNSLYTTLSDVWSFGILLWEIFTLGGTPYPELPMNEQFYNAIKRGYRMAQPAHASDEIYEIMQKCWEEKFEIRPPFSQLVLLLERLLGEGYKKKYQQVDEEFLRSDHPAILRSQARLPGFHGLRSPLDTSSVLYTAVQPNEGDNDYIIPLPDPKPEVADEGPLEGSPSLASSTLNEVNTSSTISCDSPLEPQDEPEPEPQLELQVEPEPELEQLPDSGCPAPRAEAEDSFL
Chain of Vascular endothelial growth factor receptor 2 (P35968 whole entry): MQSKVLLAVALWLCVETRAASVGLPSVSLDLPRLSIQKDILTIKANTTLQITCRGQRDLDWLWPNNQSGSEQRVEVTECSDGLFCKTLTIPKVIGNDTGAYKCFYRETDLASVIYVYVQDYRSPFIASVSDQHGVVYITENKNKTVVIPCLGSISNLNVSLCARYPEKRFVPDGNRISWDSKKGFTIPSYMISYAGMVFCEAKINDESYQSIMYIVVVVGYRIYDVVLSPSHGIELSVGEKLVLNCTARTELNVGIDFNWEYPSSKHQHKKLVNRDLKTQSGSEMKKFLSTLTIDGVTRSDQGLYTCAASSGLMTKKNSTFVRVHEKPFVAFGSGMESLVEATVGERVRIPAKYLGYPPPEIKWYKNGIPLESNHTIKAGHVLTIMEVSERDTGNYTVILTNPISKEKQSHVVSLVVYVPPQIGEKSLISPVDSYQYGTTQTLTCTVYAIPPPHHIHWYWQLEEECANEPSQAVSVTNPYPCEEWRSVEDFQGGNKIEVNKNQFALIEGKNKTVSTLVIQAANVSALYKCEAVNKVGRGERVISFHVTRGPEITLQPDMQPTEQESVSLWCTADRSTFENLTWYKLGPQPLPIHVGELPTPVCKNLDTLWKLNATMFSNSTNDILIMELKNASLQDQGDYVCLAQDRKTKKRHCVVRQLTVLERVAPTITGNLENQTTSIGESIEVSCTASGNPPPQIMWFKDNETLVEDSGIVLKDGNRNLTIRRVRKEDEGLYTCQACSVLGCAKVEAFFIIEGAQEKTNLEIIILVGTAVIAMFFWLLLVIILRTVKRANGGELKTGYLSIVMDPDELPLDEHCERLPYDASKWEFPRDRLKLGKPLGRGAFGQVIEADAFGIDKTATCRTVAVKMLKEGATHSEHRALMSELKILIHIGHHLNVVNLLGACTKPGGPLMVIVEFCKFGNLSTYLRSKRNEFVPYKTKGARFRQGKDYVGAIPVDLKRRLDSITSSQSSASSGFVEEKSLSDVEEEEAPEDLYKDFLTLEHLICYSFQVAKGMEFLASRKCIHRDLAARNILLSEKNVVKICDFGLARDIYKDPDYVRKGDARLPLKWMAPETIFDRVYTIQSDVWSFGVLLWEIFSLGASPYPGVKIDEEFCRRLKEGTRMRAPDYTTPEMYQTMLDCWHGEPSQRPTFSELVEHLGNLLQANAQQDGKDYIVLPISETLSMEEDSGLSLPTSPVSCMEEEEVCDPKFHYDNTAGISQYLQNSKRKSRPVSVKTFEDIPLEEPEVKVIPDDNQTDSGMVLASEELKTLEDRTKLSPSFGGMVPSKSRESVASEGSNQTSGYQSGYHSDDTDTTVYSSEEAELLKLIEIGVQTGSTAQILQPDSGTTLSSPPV

For `COc1cc2c(Oc3ccc(NC(=O)c4nnn(-c5ccc(F)cc5)c4C(F)(F)F)cc3F)ccnc2cc1OCCCN1CCCC1`, the IC50 [1] was greater than 10000 nM, the IC50 (HT-29) was 120 nM and the IC50 [2] was 850 nM. The IC50 [3] was 16.3 nM, the IC50 [4] was 1.04 nM and the IC50 [5] was 21 nM. It also gave an IC50 [6] of 8.78 nM, an IC50 [7] of 150 nM and an IC50 [8] of 65.4 nM. It also gave an IC50 (A549) of 80 nM and an IC50 [9] of 4.02 nM.

`COc1cc2c(Oc3ccc(NC(=O)c4nnn(-c5ccccc5C(F)(F)F)c4C(F)(F)F)cc3F)ccnc2cc1OCCCN1CCCC1` gave an IC50 (HT-29) of 210 nM, an IC50 [2] of 1180 nM and an IC50 [4] of 3.68 nM. It also gave an IC50 [5] of 60 nM, an IC50 [7] of 270 nM and an IC50 (A549) of 200 nM.

`COc1cc2c(Oc3ccc(NC(=O)c4nnn(-c5ccc(F)cc5)c4C(F)(F)F)cc3F)ccnc2cc1OCCCN1CCCCC1` gave an IC50 (HT-29) of 150 nM, an IC50 [2] of 1100 nM and an IC50 [5] of 40 nM. The IC50 (A549) was 110 nM.

With `COc1cc2c(Oc3ccc(NC(=O)c4nnn(-c5ccc(C)cc5)c4C(F)(F)F)cc3F)ccnc2cc1OCCCN1CCCCC1` the IC50 (HT-29) was 1250 nM, the IC50 [2] was 2500 nM and the IC50 [5] was 230 nM. It also gave an IC50 (A549) of 490 nM.

Compound `COc1cc2c(Oc3ccc(NC(=O)c4nnn(-c5ccccc5Cl)c4C(F)(F)F)cc3F)ccnc2cc1OCCCN1CCCCC1` has an IC50 (HT-29) of 200 nM, an IC50 [2] of 1200 nM and an IC50 [5] of 110 nM. For the same compound, the IC50 (A549) was 190 nM.

Work on `COc1cc2c(Oc3ccc(NC(=O)c4nnn(-c5ccc(F)c(F)c5)c4C(F)(F)F)cc3F)ccnc2cc1OCCCN1CCCCC1` yielded an IC50 (HT-29) of 180 nM, an IC50 [2] of 1210 nM and an IC50 [5] of 90 nM. It also gave an IC50 (A549) of 160 nM.

With `COc1ccc(-n2nnc(C(=O)Nc3ccc(Oc4ccnc5cc(OCCCN6CCCCC6)c(OC)cc45)c(F)c3)c2C(F)(F)F)cc1` the IC50 (HT-29) was 1220 nM, the IC50 [2] was 2800 nM and the IC50 [5] was 280 nM. For the same compound, the IC50 (A549) was 890 nM.

Work on `COc1cc2c(Oc3ccc(NC(=O)c4nnn(-c5ccccc5C)c4C)cc3F)ccnc2cc1OCCCN1CCC(C)CC1` yielded an IC50 (HT-29) of 520 nM, an IC50 [2] of 2160 nM and an IC50 [5] of 120 nM. For the same compound, the IC50 (A549) was 360 nM.

With `COc1cc2c(Oc3ccc(NC(=O)c4nnn(-c5ccccc5)c4C)cc3F)ccnc2cc1OCCCN1CCC(C)CC1` the IC50 (HT-29) was 140 nM, the IC50 [2] was 1240 nM and the IC50 [5] was 90 nM. It also gave an IC50 (A549) of 110 nM.

Work on `COc1cc2c(Oc3ccc(NC(=O)c4nnn(-c5ccccc5C(F)(F)F)c4C)cc3F)ccnc2cc1OCCCN1CCC(C)CC1` yielded an IC50 (HT-29) of 260 nM, an IC50 [2] of 1120 nM and an IC50 [5] of 60 nM. It also gave an IC50 (A549) of 180 nM.

For `COc1cc2c(Oc3ccc(NC(=O)c4nnn(-c5ccc(F)cc5)c4C(F)(F)F)cc3F)ccnc2cc1OCCCN1CCC(C)CC1`, the IC50 (HT-29) was 160 nM, the IC50 [2] was 800 nM and the IC50 [5] was 70 nM. It also gave an IC50 (A549) of 120 nM.

Compound `COc1cc2c(Oc3ccc(NC(=O)c4nnn(-c5ccc(C)cc5)c4C(F)(F)F)cc3F)ccnc2cc1OCCCN1CCC(C)CC1` has an IC50 (HT-29) of 1200 nM, an IC50 [2] of 2800 nM and an IC50 [5] of 140 nM. For the same compound, the IC50 (A549) was 400 nM.

Work on `COc1cc2c(Oc3ccc(NC(=O)c4nnn(-c5ccccc5C(F)(F)F)c4C(F)(F)F)cc3F)ccnc2cc1OCCCN1CCC(C)CC1` yielded an IC50 (HT-29) of 200 nM, an IC50 [2] of 1240 nM and an IC50 [5] of 100 nM. The IC50 (A549) was 220 nM.

`COc1cc2c(Oc3ccc(NC(=O)c4nnn(-c5ccc(F)c(F)c5)c4C(F)(F)F)cc3F)ccnc2cc1OCCCN1CCC(C)CC1` showed an IC50 (HT-29) of 190 nM, an IC50 [2] of 1150 nM and an IC50 [5] of 50 nM. For the same compound, the IC50 (A549) was 140 nM.

`COc1cc2c(Oc3ccc(NC(=O)c4nnn(-c5ccccc5C(F)(F)F)c4C)cc3F)ccnc2cc1OCCCN1CCN(C)CC1` gave an IC50 (HT-29) of 230 nM, an IC50 [2] of 1420 nM and an IC50 [5] of 100 nM. It also gave an IC50 (A549) of 200 nM.

Compound `COc1cc2c(Oc3ccc(NC(=O)c4nnn(-c5ccccc5Cl)c4C(F)(F)F)cc3F)ccnc2cc1OCCCN1CCN(C)CC1` has an IC50 (HT-29) of 270 nM, an IC50 [2] of 1220 nM and an IC50 [5] of 166 nM. The IC50 (A549) was 240 nM.

In the case of `COc1cc2c(Oc3ccc(NC(=O)c4nnn(-c5ccc(C)cc5)c4C(F)(F)F)cc3F)ccnc2cc1OCCCN1CCN(C)CC1`, the IC50 (HT-29) is reported as 1170 nM, the IC50 [2] is reported as 2170 nM and the IC50 [5] is reported as 140 nM. It also gave an IC50 (A549) of 370 nM.

Compound `COc1cc2c(Oc3ccc(NC(=O)c4nnn(-c5ccccc5C(F)(F)F)c4C(F)(F)F)cc3F)ccnc2cc1OCCCN1CCN(C)CC1` has an IC50 (HT-29) of 230 nM, an IC50 [2] of 1440 nM and an IC50 [5] of 100 nM. It also gave an IC50 (A549) of 180 nM.

`COc1cc2c(Oc3ccc(NC(=O)c4nnn(-c5ccc(F)c(F)c5)c4C(F)(F)F)cc3F)ccnc2cc1OCCCN1CCN(C)CC1` gave an IC50 (HT-29) of 150 nM, an IC50 [2] of 1390 nM and an IC50 [5] of 90 nM. The IC50 (A549) was 130 nM.
